According to patent publication US9409952B2, “Peptide-compound cyclization method” (Chugai Seiyaku Kabushiki Kaisha, priority 2011, dated 2016):
Starred links: 1 amine or outer side, 2 acyl side, 3 side chain; linkers in the order of their positions; H or OH if unused. Positions of bridges follow the written chain, without caps; N, C: chain ends. Non-standard residues stand in square brackets, D forms with d. Residues, ends and D or L forms follow the SMILES beside them. ξ: configuration not given here. *: point of attachment. NMeF = CN[C@@H](Cc1ccccc1)C(=O)O; NMeI = CC[C@H](C)[C@H](NC)C(=O)O; NMeβAla = CN(CCC(=O)[*:2])[*:1]; NMeL = CN[C@@H](CC(C)C)C(=O)O; NMeV = CN[C@H](C(=O)O)C(C)C; NMeA = CN[C@@H](C)C(=O)O; Piperidide = C1CCN(*)CC1; dNMeA = CN[C@H](C)C(=O)O; ξL = CC(C)CC(N)C(=O)O; Sar = CNCC(=O)O

experiment: Metabolic stability in human hepatic microsome; assay type: in vitro ADME; conditions: human, microsomes, pH 7.4, CL NADPH(+)

SMILES	microsomal CLint at 1 uM [µL/min/mg]
CC[C@H](C)[C@H]1C(=O)N[C@@H](C)C(=O)N(C)[C@@H](Cc2ccccc2)C(=O)N[C@@H]([C@@H](C)O)C(=O)N(C)[C@@H](CC(C)C)C(=O)N[C@@H](Cc2ccccc2)C(=O)N(C)[C@@H](C(C)C)C(=O)N[C@H](C(=O)N2CCCCC2)CC(=O)N[C@@H](C)C(=O)NCC(=O)N(C)[C@@H](CC(C)C)C(=O)N1C [DP-31] (AG[NMeL][NMeI]A[NMeF]T[NMeL]F[NMeV]D-Piperidide; lactam N-11)	57
CC(C)C[C@@H]1NC(=O)[C@H](C)N(C)C(=O)[C@H](C(C)C)N(C)C(=O)[C@H](Cc2ccccc2)NC(=O)CN(C)C(=O)[C@H]([C@@H](C)O)NC(=O)[C@@H]2CCCN2C(=O)[C@H](CC(C)C)NC(=O)[C@H](C)NC(=O)C[C@@H](C(=O)N2CCCCC2)NC(=O)[C@H](CC(C)C)N(C)C1=O [DP-32] (ALPT[Sar]F[NMeV][NMeA]L[NMeL]D-Piperidide; lactam N-11)	26
CC[C@H](C)[C@@H]1NC(=O)[C@H](Cc2ccccc2)N(C)C(=O)[C@H](Cc2ccccc2)NC(=O)[C@H](CC(C)C)N(C)C(=O)[C@H](CC(C)C)NC(=O)[C@H](C)NC(=O)C[C@@H](C(=O)N2CCCCC2)NC(=O)[C@H]([C@@H](C)O)NC(=O)[C@@H]2CCCN2C1=O [DP-33] (AL[NMeL]F[NMeF]IPTD-Piperidide; lactam N-9)	202
CC[C@H](C)[C@@H]1NC(=O)[C@H](C)NC(=O)C[C@@H](C(=O)N2CCCCC2)NC(=O)[C@@H]2CCCN2C(=O)C(CC(C)C)NC(=O)[C@H](Cc2ccccc2)N(C)C(=O)[C@H]([C@@H](C)O)NC(=O)[C@H](Cc2ccccc2)N(C)C(=O)[C@H](C)N(C)C1=O (stereo partly shown) [DP-34] (AI[NMeA][NMeF]T[NMeF][ξL]PD-Piperidide; lactam N-9)	102
CC[C@H](C)[C@H](NC(=O)[C@H](C)NC(=O)CNC(=O)[C@@H]1CC(=O)N[C@@H](C)C(=O)N[C@@H](CC(C)C)C(=O)N[C@@H]([C@@H](C)O)C(=O)N(C)[C@@H](CC(C)C)C(=O)N[C@@H](Cc2ccccc2)C(=O)N2CCC[C@H]2C(=O)N[C@@H](C(C)C)C(=O)N[C@@H](Cc2ccccc2)C(=O)N(C)[C@@H](CC(C)C)C(=O)N1)C(=O)N1CCCCC1 [DP-42] (ALT[NMeL]FPVF[NMeL]DGAI-Piperidide; lactam N-10)	17
CC[C@H](C)[C@H](NC(=O)[C@H](CC(C)C)N(C)C(=O)[C@@H]1CC(=O)N[C@@H](C)C(=O)N[C@@H](Cc2ccccc2)C(=O)N2CCC[C@H]2C(=O)N[C@@H](CC(C)C)C(=O)N[C@@H]([C@@H](C)O)C(=O)N[C@@H](CC(C)C)C(=O)N[C@@H](Cc2ccccc2)C(=O)N(C)[C@@H](C(C)C)C(=O)N[C@@H](C)C(=O)N1)C(=O)N1CCCCC1 [DP-43] (AFPLTLF[NMeV]AD[NMeL]I-Piperidide; lactam N-10)	44
CC[C@H](C)[C@H](NC(=O)[C@@H]1CCCN1C(=O)[C@@H](NC(=O)[C@@H]1CC(=O)N[C@@H](C)C(=O)N[C@@H](CC(C)C)C(=O)N(C)[C@@H](CC(C)C)C(=O)N[C@@H](C)C(=O)N[C@@H](CC(C)C)C(=O)N(C)[C@@H](Cc2ccccc2)C(=O)N[C@@H](Cc2ccccc2)C(=O)N1)[C@@H](C)O)C(=O)N1CCCCC1 [DP-45] (AL[NMeL]AL[NMeF]FDTPI-Piperidide; lactam N-8)	129
CC[C@H](C)[C@H](NC(=O)[C@H](CC(C)C)N(C)C(=O)[C@@H](NC(=O)[C@@H]1CC(=O)N[C@@H](C)C(=O)N[C@@H](CC(C)C)C(=O)N[C@@H]([C@@H](C)O)C(=O)N(C)[C@@H](Cc2ccccc2)C(=O)N[C@@H](Cc2ccccc2)C(=O)N(C)[C@@H](C)C(=O)N1)C(C)C)C(=O)N1CCCCC1 [DP-46] (ALT[NMeF]F[NMeA]DV[NMeL]I-Piperidide; lactam N-7)	249

same assay, conditions: microsomes, pH 7.4; human hepatic microsome, NADPH(+); read-out: CL NADPH(+)

SMILES	microsomal CLint at 1 uM [µL/min/mg]
CC(C)C[C@@H]1NC(=O)[C@H](C)NC(=O)C[C@@H](C(=O)N2CCCCC2)NC(=O)[C@H](CC(C)C)N(C)C(=O)[C@H](C)NC(=O)[C@H](CC(C)C)NC(=O)[C@H](C(C)C)NC(=O)CNC(=O)[C@H](Cc2ccccc2)NC(=O)[C@H](C)N(C)C(=O)[C@H](CC(C)C)NC(=O)[C@H]([C@@H](C)O)NC(=O)[C@H](Cc2ccccc2)NC1=O [DP-82] (ALFTL[NMeA]FGVLA[NMeL]D-Piperidide; lactam N-13)	16
CC[C@H](C)[C@@H]1NC(=O)[C@H](Cc2ccccc2)N(C)C(=O)[C@H](Cc2ccccc2)NC(=O)[C@H](CC(C)C)N(C)C(=O)[C@H](C(C)C)NC(=O)[C@H](CC(C)C)NC(=O)[C@H](C)N(C)C(=O)CNC(=O)[C@H](C)NC(=O)C[C@@H](C(=O)N2CCCCC2)NC(=O)[C@H]([C@@H](C)O)NC(=O)[C@H](CC(C)C)NC(=O)[C@H](C)N(C)C1=O [DP-83] (AG[NMeA]LV[NMeL]F[NMeF]I[NMeA]LTD-Piperidide; lactam N-13)	39
CC[C@H](C)[C@@H]1NC(=O)[C@H](C)N(C)C(=O)[C@H](Cc2ccccc2)NC(=O)[C@H](Cc2ccccc2)NC(=O)[C@H](CC(C)C)NC(=O)[C@H](C(C)C)N(C)C(=O)[C@H](CC(C)C)NC(=O)[C@H](C)NC(=O)[C@H](C)NC(=O)C[C@@H](C(=O)N2CCCCC2)NC(=O)CNC(=O)[C@H]([C@@H](C)O)NC1=O [DP-84] (AAL[NMeV]LFF[NMeA]ITGD-Piperidide; lactam N-12)	21
CC[C@H](C)[C@@H]1NC(=O)[C@H](Cc2ccccc2)N(C)C(=O)[C@H](Cc2ccccc2)NC(=O)[C@H](C(C)C)N(C)C(=O)[C@H](CC(C)C)N(C)C(=O)[C@H](CC(C)C)NC(=O)[C@H](C)NC(=O)C[C@@H](C(=O)N2CCCCC2)NC(=O)[C@H]([C@@H](C)O)NC(=O)CNC(=O)[C@H](C)N(C)C1=O [DP-85] (AL[NMeL][NMeV]F[NMeF]I[NMeA]GTD-Piperidide; lactam N-11)	58
CC[C@H](C)[C@@H]1NC(=O)[C@H](Cc2ccccc2)N(C)C(=O)[C@H](Cc2ccccc2)NC(=O)[C@H](CC(C)C)N(C)C(=O)[C@H](CC(C)C)NC(=O)[C@H](C)NC(=O)C[C@@H](C(=O)N2CCCCC2)NC(=O)[C@H]([C@@H](C)O)NC(=O)[C@H](C)N(C)C1=O [DP-86] (AL[NMeL]F[NMeF]I[NMeA]TD-Piperidide; lactam N-9)	237
CC[C@H](C)[C@@H]1NC(=O)[C@H](C)NC(=O)[C@H](CC(C)C)N(C)C(=O)[C@H](CC(C)C)NC(=O)[C@H](Cc2ccccc2)NC(=O)[C@H](C(C)C)NC(=O)[C@H](C)N(C)C(=O)[C@H](CC(C)C)NC(=O)[C@H](Cc2ccccc2)N(C)C(=O)[C@H]([C@@H](C)O)NC(=O)CNC(=O)[C@H](C)NC(=O)C[C@@H](C(=O)N2CCCCC2)NC1=O [DP-87] (AGT[NMeF]L[NMeA]VFL[NMeL]AID-Piperidide; lactam N-13)	120
CC(C)C[C@H]1C(=O)N(C)[C@@H](Cc2ccccc2)C(=O)N[C@@H](C)C(=O)N2CCC[C@H]2C(=O)N(C)[C@@H](CC(C)C)C(=O)N(C)[C@@H](Cc2ccccc2)C(=O)N(C)[C@@H](C(C)C)C(=O)N[C@H](C(=O)N2CCCCC2)CC(=O)N[C@H](C)C(=O)N[C@@H]([C@@H](C)O)C(=O)N(C)CC(=O)N1C [DP-141] ([dA]T[Sar][NMeL][NMeF]AP[NMeL][NMeF][NMeV]D-Piperidide; lactam N-11)	77
CC[C@H](C)[C@@H]1NC(=O)[C@H](C)NC(=O)C[C@@H](C(=O)N2CCCCC2)NC(=O)[C@H](Cc2ccccc2)NC(=O)[C@H](C)NC(=O)[C@H]([C@@H](C)O)NC(=O)[C@H](Cc2ccccc2)NC(=O)[C@H](CC(C)C)N(C)C(=O)[C@H](CC(C)C)NC(=O)[C@H](Cc2ccccc2)NC(=O)[C@H](CC(C)C)NC1=O [DP-320] (AILFL[NMeL]FTAFD-Piperidide; lactam N-11)	36
CC[C@H](C)[C@@H]1NC(=O)[C@H](CC(C)C)N(C)C(=O)[C@H](Cc2ccccc2)NC(=O)[C@H](CC(C)C)N(C)C(=O)[C@H](CC(C)C)NC(=O)[C@H](Cc2ccccc2)NC(=O)[C@H]([C@@H](C)O)NC(=O)[C@H](C)N(C)C(=O)[C@H](CC(C)C)NC(=O)CCN(C)C(=O)C[C@@H](C(=O)N2CCCCC2)NC1=O [DP-325] ([NMeβAla]L[NMeA]TFL[NMeL]F[NMeL]ID-Piperidide; lactam N-11)	99
CC(C)C[C@@H]1NC(=O)CN(C)C(=O)[C@H](C)NC(=O)[C@H]([C@@H](C)O)NC(=O)[C@@H](C)N(C)C(=O)C[C@@H](C(=O)N2CCCCC2)NC(=O)[C@H](CC(C)C)N(C)C(=O)[C@H](CC(C)C)NC(=O)[C@H](C(C)C)N(C)C(=O)[C@H](CC(C)C)NC(=O)[C@H](Cc2ccccc2)NC1=O [DP-328] ([dNMeA]TA[Sar]LFL[NMeV]L[NMeL]D-Piperidide; lactam N-11)	32
CC[C@H](C)[C@@H]1NC(=O)[C@H](C(C)C)N(C)C(=O)[C@H](Cc2ccccc2)N(C)C(=O)[C@H](Cc2ccccc2)NC(=O)[C@H](CC(C)C)N(C)C(=O)[C@H](C)N(C)C(=O)[C@H]([C@@H](C)O)NC(=O)[C@H](C)N(C)C(=O)C[C@@H](C(=O)N2CCCCC2)NC(=O)[C@H](CC(C)C)N(C)C1=O [DP-333] ([NMeA]T[NMeA][NMeL]F[NMeF][NMeV]I[NMeL]D-Piperidide; lactam N-10)	157
CC(C)C[C@@H]1NC(=O)[C@H](Cc2ccccc2)NC(=O)[C@H](CC(C)C)N(C)C(=O)[C@H](Cc2ccccc2)NC(=O)[C@@H](C)N(C)C(=O)C[C@@H](C(=O)N2CCCCC2)NC(=O)[C@H](Cc2ccccc2)N(C)C(=O)CNC(=O)[C@H]([C@@H](C)O)NC(=O)[C@H](CC(C)C)NC1=O [DP-486] ([dNMeA]F[NMeL]FLLTG[NMeF]D-Piperidide; lactam N-10)	87
CC[C@H](C)[C@@H]1NC(=O)[C@H](C(C)C)N(C)C(=O)[C@H](C)N(C)C(=O)C[C@@H](C(=O)N2CCCCC2)NC(=O)[C@H](CC(C)C)NC(=O)[C@H](Cc2ccccc2)N(C)C(=O)[C@H](CC(C)C)N(C)C(=O)[C@H](CC(C)C)NC(=O)[C@H]([C@@H](C)O)NC(=O)[C@H](Cc2ccccc2)NC1=O [DP-488] ([NMeA][NMeV]IFTL[NMeL][NMeF]LD-Piperidide; lactam N-10)	261
CC(C)C[C@@H]1NC(=O)[C@H](Cc2ccccc2)N(C)C(=O)[C@H](C)N(C)C(=O)C[C@@H](C(=O)N2CCCCC2)NC(=O)[C@H]([C@@H](C)O)NC(=O)[C@H](CC(C)C)N(C)C(=O)[C@H](Cc2ccccc2)NC(=O)[C@H](CC(C)C)N(C)C(=O)[C@H](CC(C)C)N(C)C1=O [DP-494] ([NMeA][NMeF]L[NMeL][NMeL]F[NMeL]TD-Piperidide; lactam N-9)	330
